Measurements taken from PMC5945563 (Chemistry Central Journal, 2018).
Counter-ions that a name gives are not always drawn.

Experiments:
human 5-HT6 receptor = human 5-HT6 receptor (Homo sapiens, UniProt P50406); experiment: Radioligand binding assay, [3H]-LSD, HEK293 cell membranes
human 5-HT7b receptor = human 5-HT7b receptor (Homo sapiens, UniProt P34969); experiment: Radioligand binding assay, [3H]-5-CT, HEK293 cell membranes
human 5-HT1A receptor = target: T1, human 5-HT1A receptor (Homo sapiens, UniProt P08908); experiment: Radioligand binding assay, [3H]-8-OH-DPAT, HEK293 cell membranes
T1 sequence (P08908 1-422): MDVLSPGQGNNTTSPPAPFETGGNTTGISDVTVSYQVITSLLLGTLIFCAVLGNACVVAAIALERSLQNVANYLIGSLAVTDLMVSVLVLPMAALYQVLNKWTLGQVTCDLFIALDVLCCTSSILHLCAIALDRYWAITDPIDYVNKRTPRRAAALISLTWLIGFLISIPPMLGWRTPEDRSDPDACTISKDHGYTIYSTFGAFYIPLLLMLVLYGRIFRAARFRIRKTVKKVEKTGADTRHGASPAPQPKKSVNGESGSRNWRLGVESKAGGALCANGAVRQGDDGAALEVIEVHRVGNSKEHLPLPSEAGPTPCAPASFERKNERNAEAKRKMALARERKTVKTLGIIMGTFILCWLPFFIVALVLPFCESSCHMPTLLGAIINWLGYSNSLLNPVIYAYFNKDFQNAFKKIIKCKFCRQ

human D2L receptor = human D2L receptor (Homo sapiens, UniProt P14416); experiment: Radioligand binding assay, [3H]-raclopride, HEK293 cell membranes
human D2L receptor, sequence (P14416 whole entry): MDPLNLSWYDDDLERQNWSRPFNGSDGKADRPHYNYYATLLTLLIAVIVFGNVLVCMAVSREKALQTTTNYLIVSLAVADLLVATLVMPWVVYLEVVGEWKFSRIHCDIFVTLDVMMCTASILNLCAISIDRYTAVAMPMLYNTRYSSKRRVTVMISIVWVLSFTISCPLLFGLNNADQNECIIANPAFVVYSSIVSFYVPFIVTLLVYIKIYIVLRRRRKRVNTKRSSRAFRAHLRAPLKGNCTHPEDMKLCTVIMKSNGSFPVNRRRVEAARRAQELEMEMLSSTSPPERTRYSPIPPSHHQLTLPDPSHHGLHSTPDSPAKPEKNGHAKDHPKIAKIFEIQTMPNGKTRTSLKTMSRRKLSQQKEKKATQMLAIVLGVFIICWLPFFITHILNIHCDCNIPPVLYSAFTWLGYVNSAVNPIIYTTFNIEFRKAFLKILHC

human 5-HT6 receptor, sequence (P50406 whole entry): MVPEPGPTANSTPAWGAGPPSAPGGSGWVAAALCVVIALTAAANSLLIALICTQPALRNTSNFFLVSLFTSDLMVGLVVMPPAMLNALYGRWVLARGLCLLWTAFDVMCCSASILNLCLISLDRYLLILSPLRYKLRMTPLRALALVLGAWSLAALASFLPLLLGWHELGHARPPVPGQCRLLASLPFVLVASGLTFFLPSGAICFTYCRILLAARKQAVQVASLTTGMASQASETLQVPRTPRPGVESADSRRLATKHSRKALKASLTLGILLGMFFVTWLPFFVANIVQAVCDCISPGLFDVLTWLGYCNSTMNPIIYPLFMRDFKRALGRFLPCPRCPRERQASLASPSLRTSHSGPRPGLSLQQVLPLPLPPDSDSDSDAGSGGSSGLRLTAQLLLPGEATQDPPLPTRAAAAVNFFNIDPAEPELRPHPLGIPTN
human 5-HT7b receptor, sequence (P34969 1-432 limits assumed): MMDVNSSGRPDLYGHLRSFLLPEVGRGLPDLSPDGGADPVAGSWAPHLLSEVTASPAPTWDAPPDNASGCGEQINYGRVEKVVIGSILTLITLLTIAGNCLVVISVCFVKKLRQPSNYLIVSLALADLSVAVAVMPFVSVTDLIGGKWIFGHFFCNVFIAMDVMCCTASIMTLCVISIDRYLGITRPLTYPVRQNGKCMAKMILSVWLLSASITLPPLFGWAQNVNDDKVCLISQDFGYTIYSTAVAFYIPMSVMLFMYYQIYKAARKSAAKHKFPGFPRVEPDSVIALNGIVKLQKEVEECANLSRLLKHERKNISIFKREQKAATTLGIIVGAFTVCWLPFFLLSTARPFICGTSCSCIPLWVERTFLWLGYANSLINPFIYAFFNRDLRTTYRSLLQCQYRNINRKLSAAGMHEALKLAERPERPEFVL

| melting point [°C] | Ki (human 5-HT6 receptor) [µM] | Ki (human 5-HT7b receptor) [µM] | Ki (human 5-HT1A receptor) [µM] | Ki (human D2L receptor) [µM] | Structure (SMILES) |
| --- | --- | --- | --- | --- | --- |
| 198 to 199 | – | – | – | – | O=S(=O)(NCCCCN1CCN(c2ccccc2)CC1)c1cc2ccccc2cn1 (as salt: hydrochloride) [Compound 1, N-(4-(4-phenyl)piperazin-1-yl)butyl)isoquinoline-3-sulfonamide hydrochloride] |
| 246 to 247 | 0.436 | 0.049 | 0.038 | 0.047 | Cl.O=S(=O)(NCCCCN1CCN(c2cccc(Cl)c2)CC1)c1cc2ccccc2cn1 [Compound 2, N-(4-(4-(3-chlorophenyl)piperazin-1-yl)butyl)isoquinoline-3-sulfonamide hydrochloride] |
| 215 to 216 | 0.916 | 0.085 | 0.073 | 0.023 | Cc1cccc(N2CCN(CCCCNS(=O)(=O)c3cc4ccccc4cn3)CC2)c1C.Cl [Compound 4, N-(4-(4-(2,3-dimethylphenyl)piperazin-1-yl)butyl)isoquinoline-3-sulfonamide hydrochloride] |
